{"source": "paper PMC6862662", "about": "“In Vitro Evaluation and Docking Studies of 5-oxo-5H-furo[3,2-g]chromene-6-carbaldehyde Derivatives as Potential Anti-Alzheimer’s Agents” (International Journal of Molecular Sciences, 2019)", "key": {"AChE [1]": {"target": "T1, AChE (Homo sapiens, UniProt P22303)", "T1 construct": "purchased BL, purchased through BIOCOM Africa (Pty) Ltd. 768104", "T1 sequence (P22303 32-614)": "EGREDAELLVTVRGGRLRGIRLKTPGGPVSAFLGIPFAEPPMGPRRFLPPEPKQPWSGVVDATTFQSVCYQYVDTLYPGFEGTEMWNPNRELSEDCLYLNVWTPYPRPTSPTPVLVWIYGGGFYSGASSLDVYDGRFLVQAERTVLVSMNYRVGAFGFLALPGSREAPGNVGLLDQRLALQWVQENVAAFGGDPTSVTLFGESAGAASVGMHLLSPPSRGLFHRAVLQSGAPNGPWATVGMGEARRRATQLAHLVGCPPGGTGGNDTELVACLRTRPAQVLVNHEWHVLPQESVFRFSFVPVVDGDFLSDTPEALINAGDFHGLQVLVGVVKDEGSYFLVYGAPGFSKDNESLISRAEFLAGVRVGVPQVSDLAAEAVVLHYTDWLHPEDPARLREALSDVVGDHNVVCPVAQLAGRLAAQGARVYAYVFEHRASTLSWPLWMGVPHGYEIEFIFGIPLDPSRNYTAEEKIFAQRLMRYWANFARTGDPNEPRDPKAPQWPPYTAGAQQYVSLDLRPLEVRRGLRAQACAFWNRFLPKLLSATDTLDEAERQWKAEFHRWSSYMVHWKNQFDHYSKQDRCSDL", "experiment": "biochemical"}, "BChE [2]": {"target": "T2, BChE (Homo sapiens, UniProt P06276)", "T2 construct": "purchased cloud-clone corp., purchased through BIOCOM Africa (Pty) Ltd. RPC348Hu0 2_100", "T2 sequence (P06276 29-602)": "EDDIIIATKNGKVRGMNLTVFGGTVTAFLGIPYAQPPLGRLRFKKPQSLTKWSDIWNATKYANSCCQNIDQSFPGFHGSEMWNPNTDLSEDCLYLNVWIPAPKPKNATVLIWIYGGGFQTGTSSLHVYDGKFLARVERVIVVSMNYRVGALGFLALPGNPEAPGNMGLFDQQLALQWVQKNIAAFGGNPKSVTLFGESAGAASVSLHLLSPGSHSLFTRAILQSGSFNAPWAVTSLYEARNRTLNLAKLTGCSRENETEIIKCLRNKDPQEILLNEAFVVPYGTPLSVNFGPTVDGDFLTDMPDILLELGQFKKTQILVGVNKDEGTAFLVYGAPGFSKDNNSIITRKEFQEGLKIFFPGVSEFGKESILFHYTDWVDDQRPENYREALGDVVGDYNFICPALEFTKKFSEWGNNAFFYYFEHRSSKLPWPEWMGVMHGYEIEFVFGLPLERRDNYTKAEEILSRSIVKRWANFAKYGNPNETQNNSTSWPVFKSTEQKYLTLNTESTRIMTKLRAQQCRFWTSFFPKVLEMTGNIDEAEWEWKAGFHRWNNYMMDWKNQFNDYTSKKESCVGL", "experiment": "biochemical", "experimental": "The mixtures were incubated for 15 min at RT. The reaction was initiated by adding of 10 µL of mixture solution of 5 mM 5,50-dithio-bis-nitrobenzoic acid (DTNB) in 50 mM tris buffer (pH 7.7) and 10 µL acetylthiocholine (ASCh; 5 mM) in 50 mM tris buffer, pH 7.7 into the wells containing the mixtures. The hydrolysis of ASCh was determined by monitoring the formation of the yellow 5-thio-2-nitrobenzoate anion resulting from reaction of DTNB with thiocholines (SCh).\nThe IC50 values were determined graphically from inhibition curves (inhibitor concentration and absorbance) using the graph pad prism."}, "human recombinant BACE-1": {"target": "T3, human recombinant BACE-1 (Homo sapiens, UniProt P56817)", "T3 construct": "purchased Pan Vera; host or cells: baculovirus-expressed", "T3 sequence (P56817 46-501)": "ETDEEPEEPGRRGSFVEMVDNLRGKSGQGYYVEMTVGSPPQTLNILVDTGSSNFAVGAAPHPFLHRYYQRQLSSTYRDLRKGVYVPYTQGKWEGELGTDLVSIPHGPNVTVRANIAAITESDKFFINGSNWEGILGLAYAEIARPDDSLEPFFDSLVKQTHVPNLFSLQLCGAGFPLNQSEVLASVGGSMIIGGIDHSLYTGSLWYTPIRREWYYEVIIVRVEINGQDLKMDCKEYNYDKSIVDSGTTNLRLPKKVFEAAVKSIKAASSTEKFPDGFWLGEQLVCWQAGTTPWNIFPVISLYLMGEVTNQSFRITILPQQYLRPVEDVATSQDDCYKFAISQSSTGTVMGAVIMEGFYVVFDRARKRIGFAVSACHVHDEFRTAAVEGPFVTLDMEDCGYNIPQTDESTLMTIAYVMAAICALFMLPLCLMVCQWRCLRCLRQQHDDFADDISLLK", "experiment": "β-secretase FRET inhibitory assay", "type": "biochemical", "settings": "triplicate"}, "[3]": {"tested_on": "lipoxygenase-15 (Soybean LOX-15)", "type": "biochemical", "settings": "ratio not defined in print; matches IC50 LOX-15/LOX-5", "experimental": "Stock solutions (200 µM) of tested samples were prepared in DMSO. The stock solutions were further diluted with 50 mM Tris buffer of pH 7.7 to obtain concentrations of 0.01, 0.1, 1, 10 and 100 µM. The cells of a 96-well plate where distributed as follows: two wells taken as blanks (100 µL 50 mM Tris buffer pH 7.7), two wells taken as positive controls (90 µL of 15-LO Standard and 10 µL of DMSO) and two wells as 100% initial activity wells (90 µL lipoxygenase enzyme solution and 10 µL tris buffer). […] The 96-well plate was then incubated for 5 min at room temperature. The reaction was initiated by the addition of 10 µL of the substrate (arachidonic acid) to each well containing the mixtures. After shaking the 96-well plate on a shaker for 5 min, 100 µL of the chromogen (solution of equal volume developing reagent 1 and 2) was added to each well to stop enzyme catalysis and develop the reaction. The plate was again shaken for 5 min and the absorbance read at 490 nm in a Varioskan flash microplate spectrophotometer reader. The inhibitory concentration was expressed as a percentage using the formula below. […]\nASample is the absorbance of the reaction mixture of the test sample, ABlank sample is the absorbance of the reaction mixture containing all reagents except enzyme and AInitial activity is the absorbance of 100% initial activity."}, "[4]": {"target": "T4, human lipoxygenase-5 (LOX-5) (Homo sapiens, UniProt P09917)", "T4 construct": "purchased BioVision K980", "T4 sequence (P09917 1-674)": "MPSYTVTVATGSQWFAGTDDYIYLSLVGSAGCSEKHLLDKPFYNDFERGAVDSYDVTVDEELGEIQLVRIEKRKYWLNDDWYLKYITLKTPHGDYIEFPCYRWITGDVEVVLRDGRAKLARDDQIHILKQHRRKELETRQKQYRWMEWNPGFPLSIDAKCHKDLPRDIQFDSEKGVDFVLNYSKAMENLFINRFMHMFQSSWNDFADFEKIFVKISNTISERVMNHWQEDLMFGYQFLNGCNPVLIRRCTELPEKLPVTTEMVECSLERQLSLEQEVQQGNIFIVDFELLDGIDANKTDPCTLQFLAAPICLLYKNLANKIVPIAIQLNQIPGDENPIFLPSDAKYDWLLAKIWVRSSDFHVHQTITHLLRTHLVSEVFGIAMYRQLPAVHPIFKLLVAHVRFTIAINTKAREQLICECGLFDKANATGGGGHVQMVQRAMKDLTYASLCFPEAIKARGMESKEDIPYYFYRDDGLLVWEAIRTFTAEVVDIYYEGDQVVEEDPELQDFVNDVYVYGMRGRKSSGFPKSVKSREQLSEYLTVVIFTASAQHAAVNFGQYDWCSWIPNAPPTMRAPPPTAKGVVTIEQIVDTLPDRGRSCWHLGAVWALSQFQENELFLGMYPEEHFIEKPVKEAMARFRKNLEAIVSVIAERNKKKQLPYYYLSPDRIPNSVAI", "experiment": "Human LOX-5 inhibitory assay", "type": "biochemical", "settings": "human LOX-5, duplicate", "experimental": "The reagents were prepared according to the Lipoxygenase inhibitor screening kit (Item No. K980; BioVision, Milpitas Blvd, Milpitas, CA, USA) standard protocol. […] The cells of a 96-well plate where distributed as follows: two wells were taken as blanks (100 µL of assay buffer), two wells enzyme controls (90 µL of 15-LO Standard and 10 µL of tris buffer), two wells as 100% initial activity wells (90 µL and 10 µL DMSO) and three wells as enzyme control (40 µL). […] Forty µL of the reaction mixture (prepared by mixing thoroughly 36 µL of LOX assay buffer, 2 µL of LOX probe and 2 µL of 5-LOX enzyme) were added to each well and incubated for 10 min. at RT. The DMSO concentration in each reaction well was 1% to prevent enzyme structural deformation and therefore, reduced activity. […] The percentage inhibition (%) was calculated using the equation below. (4) % Inhibition=Control−Test/Control×100."}, "[5]": {"experiment": "DPPH radical scavenging activity assay", "settings": "triplicate, preliminary", "procedure": "DPPH radical scavenging activity of compounds 2b, 2f, 3b, 3d and 3f was evaluated following the literature method. Ascorbic acid (Sigma Aldrich, Saint Louis, Missouri, USA) was used as a positive control. The test compounds and controls at various concentrations ranging from (0 µM to 40 µM) in DMSO were mixed with a solution of DPPH (0.20 mM) in methanol. The mixtures were incubated in the dark for 45 min and the absorbances were recorded at 512 nm using Varioskan flash microplate spectrophotometer reader. All tests and analyses were run in triplicate and averaged. The inhibition was calculated in terms of percentage using the formula below:(5) DPPH radical scavenged (%)=AbC−AbS/AbC×100, where AbC is absorbance of control and AbS the absorbance of the test sample."}, "AChE [6]": {"target": "T1, AChE", "experiment": "Kinetic studies against AChE (Lineweaver–Burk and Dixon plots)", "type": "biochemical", "procedure": "(§1) Compounds 2f, 2b, 2f, 3b, 3d and 3f were selected for the kinetic studies with substrate concentrations 0.1, 0.5, 2. 5 and 5 µM for ChEs following procedures described in our previous investigation. The Lineweaver–Burk plots (plots of the inverse of velocity (1/v) against the inverse of the substrate concentration (1/[S])) were used to ascertain the mode of inhibition of these compounds."}, "BChE [7]": {"target": "T2, BChE", "experiment": "Kinetic studies against BChE (Lineweaver–Burk and Dixon plots)", "type": "biochemical", "procedure": "as §1"}, "β-secretase (BACE-1)": {"target": "T5, β-secretase (BACE-1) (Homo sapiens, UniProt P56817)", "T5 construct": "purchased Pan Vera; host or cells: baculovirus-expressed", "T5 sequence (P56817 46-501)": "as the sequence (P56817 46-501) above", "experiment": "Kinetic studies against β-secretase (Lineweaver–Burk and Dixon plots)", "type": "biochemical", "procedure": "Compound 2f was selected for the kinetic studies with substrate concentrations 150, 300 and 450 nM for β-secretase following procedure described in our previous investigation. The Lineweaver–Burk plot (plot of the inverse of velocity (1/v) against the inverse of the substrate concentration (1/[S])) was used to ascertain the mode of inhibition of this compound."}, "[8]": {"tested_on": "breast cancer cell line MCF-7", "experiment": "MTT cytotoxicity assay, MCF-7", "type": "cell-based", "settings": "Homo sapiens, MCF7; MTT assay, 24 h, preliminary; read-out: IC50 against MCF-7 cancer cell line", "experimental": "(§2) Briefly, the cells were seeded in 96-well plate at a density of 20 × 10^3 cells per well and then incubated at 37 °C in 5% CO2 to allow cell attachment. […] An equal volume of medium was used as the control treatment. After treatment for 24 h, 10 μL MTT (5 mg/mL) was added to each well and the plate was further incubated for 4 h later. The supernatant was removed and 100 μL of DMSO was added to each well to dissolve the resulting formazan crystals. The absorbance was read at 570 nm using the Varioskan flash microplate spectrophotometer reader. The percentages of cell viability were used to determine the IC50 values."}, "Hek293-T cells": {"tested_on": "Hek293-T cells", "experiment": "MTT cytotoxicity assay, Hek293-T", "type": "cell-based", "settings": "24 h, till 50 μM", "experimental": "as §2"}, "[9]": {"settings": "Lineweaver–Burk and Dixon plots"}}, "data": [{"compound": "COc1ccc(-c2cc3cc4c(=O)c(C=O)coc4cc3o2)cc1", "note": "[Compound 2f, 2-(4-Methoxyphenyl)-5-oxo-5H-furo[3,2-g]chromene-6-carbaldehyde]", "values": [{"measurement": "IC50", "setting": "AChE [1]", "result": "9.4 ± 0.01", "unit": "µM"}, {"measurement": "SI BChE/AChE", "setting": "AChE [1]; Selectivity index IC50 (BChE)/IC50 (AChE)", "result": 0.54}, {"measurement": "IC50", "setting": "BChE [2]; Ellman's method, triplicate", "result": "5.1 ± 0.02", "unit": "µM"}, {"measurement": "SI AChE/BChE", "setting": "BChE [2]; Selectivity index IC50 (AChE)/IC50 (BChE)", "result": 1.85}, {"measurement": "IC50", "setting": "human recombinant BACE-1", "result": "15.4 ± 0.02", "unit": "µM"}, {"measurement": "SI (LOX-15 vs LOX-5)", "setting": "[3]", "result": 0.63}, {"measurement": "IC50", "setting": "[4]", "result": "15.3 ± 0.01", "unit": "µM"}, {"measurement": "IC50", "setting": "[5]", "result": "18.1 ± 0.03", "unit": "µM"}, {"measurement": "Ki", "setting": "AChE [6]; Dixon plots", "result": "1.34 ± 0.02", "unit": "µM"}, {"measurement": "mode of inhibition against AChE", "setting": "AChE [6]; [9]", "result": "competitive"}, {"measurement": "Vmax against AChE", "setting": "AChE [6]; Lineweaver–Burk plots, increasing inhibitor concentration", "result": "0.03 ± 0.018"}, {"measurement": "Ki", "setting": "BChE [7]; Dixon plots", "result": "3.9 ± 0.01", "unit": "µM"}, {"measurement": "mode of inhibition against BChE", "setting": "BChE [7]; [9]", "result": "non-competitive"}, {"measurement": "Ki", "setting": "β-secretase (BACE-1); Dixon plot", "result": "1.49 ± 0.01", "unit": "µM"}, {"measurement": "mode of inhibition against β-secretase", "setting": "β-secretase (BACE-1); [9]", "result": "mixed mode of inhibition"}, {"measurement": "IC50", "setting": "[8]", "result": "8.65 ± 0.03", "unit": "µM"}, {"measurement": "toxicity in Hek293-T cells", "setting": "Hek293-T cells", "result": "did not show any major toxicity"}]}]}
